Calls of active or inactive are those of the source.
Experiments:
[1] = Luminescent dose response cell-based high throughput screening assay for inhibitors of the Janus kinase 2 mutant JAK2V617F. [Related pubchem assays: 1446 (Primary screen.), 1521 (Confirmation assay.), 1486 (Counter screen.)]; type: functional
[2] = Intein inhibitors as potential Tuberculosis drugs, a cytotoxicity screen. [Related pubchem assays (depositor defined):AID2221, AID2223, AID434968, AID435010, AID449749, AID449750, AID489010]; type: functional
[3] = molecular target: T1, Replicative DNA helicase DnaB (Mycobacterium tuberculosis, UniProt P9WMR3); experiment: DnaB intein splicing inhibitors, dose response, biochemical, cell-free fluorescence (AID 449749); type: functional
T1 sequence (P9WMR3 whole entry): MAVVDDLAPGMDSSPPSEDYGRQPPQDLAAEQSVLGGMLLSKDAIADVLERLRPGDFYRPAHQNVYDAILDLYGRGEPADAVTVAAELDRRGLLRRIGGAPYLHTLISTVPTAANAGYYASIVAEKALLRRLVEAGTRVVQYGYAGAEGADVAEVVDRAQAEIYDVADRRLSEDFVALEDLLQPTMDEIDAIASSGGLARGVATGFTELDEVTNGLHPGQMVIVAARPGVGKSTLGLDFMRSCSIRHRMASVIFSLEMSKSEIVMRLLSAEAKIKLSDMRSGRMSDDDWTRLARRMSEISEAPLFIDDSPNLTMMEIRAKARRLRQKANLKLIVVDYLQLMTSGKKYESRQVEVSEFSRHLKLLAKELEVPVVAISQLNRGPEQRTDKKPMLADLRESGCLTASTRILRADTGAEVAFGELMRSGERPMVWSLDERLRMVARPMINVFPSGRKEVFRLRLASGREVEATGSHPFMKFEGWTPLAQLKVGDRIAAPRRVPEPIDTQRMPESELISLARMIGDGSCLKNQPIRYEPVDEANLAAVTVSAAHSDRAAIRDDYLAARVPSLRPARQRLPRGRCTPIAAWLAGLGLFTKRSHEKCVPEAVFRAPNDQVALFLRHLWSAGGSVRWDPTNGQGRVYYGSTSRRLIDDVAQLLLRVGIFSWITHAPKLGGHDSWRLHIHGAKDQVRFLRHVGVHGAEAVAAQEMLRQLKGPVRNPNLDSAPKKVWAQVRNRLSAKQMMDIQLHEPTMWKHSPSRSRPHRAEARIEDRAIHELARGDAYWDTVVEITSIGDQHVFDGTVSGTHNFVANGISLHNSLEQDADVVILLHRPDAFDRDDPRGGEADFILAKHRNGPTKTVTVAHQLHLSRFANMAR

[4] = molecular target: T2, Protein RecA (Mycobacterium tuberculosis, UniProt P9WHJ3); experiment: Fluorescence Cell-Free Homogeneous Dose Retest to Identify Inhibitors of RecA-Intein Splicing Activity. [Related pubchem assays (depositor defined):AID2097, AID2223, AID489010, AID492950]; type: functional
T2 sequence (P9WHJ3 whole entry): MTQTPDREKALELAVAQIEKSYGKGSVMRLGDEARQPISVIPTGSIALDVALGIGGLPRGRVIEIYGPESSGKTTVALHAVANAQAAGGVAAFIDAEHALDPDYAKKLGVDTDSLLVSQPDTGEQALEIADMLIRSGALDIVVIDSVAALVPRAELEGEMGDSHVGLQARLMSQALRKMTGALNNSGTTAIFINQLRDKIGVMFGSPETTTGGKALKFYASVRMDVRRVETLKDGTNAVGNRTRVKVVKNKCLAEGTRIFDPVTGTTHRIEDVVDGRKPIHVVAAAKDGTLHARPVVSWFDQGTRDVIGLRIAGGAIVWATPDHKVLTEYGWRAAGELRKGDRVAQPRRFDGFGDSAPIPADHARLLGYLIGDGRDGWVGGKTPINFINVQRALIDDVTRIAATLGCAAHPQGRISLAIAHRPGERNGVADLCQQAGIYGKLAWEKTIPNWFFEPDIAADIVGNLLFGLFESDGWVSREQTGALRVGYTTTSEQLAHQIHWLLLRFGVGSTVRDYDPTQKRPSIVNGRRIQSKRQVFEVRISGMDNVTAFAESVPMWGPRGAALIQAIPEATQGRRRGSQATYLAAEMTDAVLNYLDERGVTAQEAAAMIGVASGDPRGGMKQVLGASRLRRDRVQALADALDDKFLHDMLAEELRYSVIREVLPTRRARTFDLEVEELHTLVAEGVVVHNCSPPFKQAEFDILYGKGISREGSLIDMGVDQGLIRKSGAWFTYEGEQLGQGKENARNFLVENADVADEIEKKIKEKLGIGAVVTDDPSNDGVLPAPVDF

[5] = mammalian cell cytotoxicity, dose response, cytotoxicity control, plate reader, cherry-pick samples (AID 504397); type: functional, cell-based
[6] = molecular target: T3, Kappa-type opioid receptor (Homo sapiens, UniProt P41145); experiment: KOR agonist analogs, arrestin-GFP redistribution, SAR follow-up, imaging, image-based, set 3 (AID 488833); type: functional
[7] = molecular target: Mu-type opioid receptor (Homo sapiens, UniProt P35372); experiment: SAR Analysis of Agonists of the MOR Receptor using an Image-Based Assay - Set 3. [Related pubchem assays (depositor defined):AID1777, AID1785, AID1786, AID1966, AID2133, AID2136, AID2284, AID2285, AID2352]; type: functional
[8] = molecular target: Delta-type opioid receptor (Homo sapiens, UniProt P41143); experiment: SAR Analysis of Agonists of the DOR Receptor using an Image-Based Assay - Set 3. [Related pubchem assays (depositor defined):AID1777, AID1786]; type: functional
[9] = molecular target: T3, Kappa-type opioid receptor; experiment: SAR analysis of small molecule agonists of the kappa opioid receptor via a luminescent beta-arrestin assay - Set 3. [Related pubchem assays (depositor defined):AID1777, AID1785, AID1786, AID1966, AID2133, AID2136, AID2284, AID2500]; type: functional
[10] = molecular target: T4, G-protein coupled receptor 35 (Homo sapiens, UniProt Q9HC97); experiment: SAR analysis of Agonists of the GPR35 Receptor using an Image-Based Assay - Set 4. [Related pubchem assays (depositor defined):AID2013, AID2026]; type: functional
[11] = molecular target: T5, Cannabinoid receptor 1 (Homo sapiens, UniProt P21554); experiment: SAR analysis of agonists of the Cannabinoid Receptor 1 using an Image-Based Assay - Set 4. [Related pubchem assays (depositor defined):AID2013, AID2026]; type: functional
[12] = molecular target: T4, G-protein coupled receptor 35; experiment: SAR analysis of Antagonists of the GPR35 Receptor using an Image-Based Assay - Set 6. [Related pubchem assays (depositor defined):AID2013, AID2026]; type: functional
[13] = molecular target: T5, Cannabinoid receptor 1; experiment: SAR analysis of antagonists of the Cannabinoid Receptor 1 using an Image-Based Assay - Set 4. [Related pubchem assays (depositor defined):AID2013, AID2026]; type: functional
[14] = molecular target: G-protein coupled receptor 55 (Homo sapiens, UniProt Q9Y2T6); experiment: SAR Analysis of Selective Antagonists of GPR55 using an Image-Based Assay - Set 4. [Related pubchem assays (depositor defined):AID2013, AID2026]; type: functional;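 also: antagonism of response to 5 µM lysophosphatidylinositol agonist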
[15] = molecular target: T6, Cannabinoid receptor 2 (Homo sapiens, UniProt P34972); experiment: SAR analysis of antagonists of the Cannabinoid Receptor 2 using an Image-Based Assay - Set 3. [Related pubchem assays (depositor defined):AID2013, AID2026]; type: functional
[16] = molecular target: T6, Cannabinoid receptor 2; experiment: SAR analysis of agonists of the Cannabinoid Receptor 2 using an Image-Based Assay - Set 3. [Related pubchem assays (depositor defined):AID2013, AID2026]; type: functional
[17] = molecular target: T7, Type-1 angiotensin II receptor (Homo sapiens, UniProt P30556); experiment: AT1 receptor agonists, dose response, selectivity assay for APJ receptor agonist project, cell-based, uHTS hits (AID 488865); type: functional;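 also: beta-arrestin recruitment to AT1 measured by enzyme fragment complementation luminescence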
T7 sequence (P30556 whole entry): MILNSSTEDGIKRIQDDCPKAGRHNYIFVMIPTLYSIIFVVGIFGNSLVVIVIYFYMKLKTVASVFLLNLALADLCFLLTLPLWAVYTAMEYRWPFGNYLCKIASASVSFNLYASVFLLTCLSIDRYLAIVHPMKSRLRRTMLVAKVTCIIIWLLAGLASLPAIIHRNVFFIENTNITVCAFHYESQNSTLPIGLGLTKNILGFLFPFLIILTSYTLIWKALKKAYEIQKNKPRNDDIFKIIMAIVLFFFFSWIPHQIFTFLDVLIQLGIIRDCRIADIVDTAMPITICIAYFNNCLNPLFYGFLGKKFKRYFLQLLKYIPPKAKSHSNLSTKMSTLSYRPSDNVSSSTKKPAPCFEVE
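For CC50 in this document: cells exposed to compound for 72 hours before luminescence readout.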

T4 sequence (Q9HC97 whole entry): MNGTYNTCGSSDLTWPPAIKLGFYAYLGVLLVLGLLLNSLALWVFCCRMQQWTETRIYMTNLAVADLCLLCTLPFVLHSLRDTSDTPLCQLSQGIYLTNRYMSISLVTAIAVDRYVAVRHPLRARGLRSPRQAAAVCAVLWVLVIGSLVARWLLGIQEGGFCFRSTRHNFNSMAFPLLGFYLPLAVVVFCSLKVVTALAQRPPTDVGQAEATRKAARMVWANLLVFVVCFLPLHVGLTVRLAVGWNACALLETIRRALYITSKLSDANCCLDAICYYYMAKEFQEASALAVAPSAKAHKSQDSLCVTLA
T6 sequence (P34972 whole entry): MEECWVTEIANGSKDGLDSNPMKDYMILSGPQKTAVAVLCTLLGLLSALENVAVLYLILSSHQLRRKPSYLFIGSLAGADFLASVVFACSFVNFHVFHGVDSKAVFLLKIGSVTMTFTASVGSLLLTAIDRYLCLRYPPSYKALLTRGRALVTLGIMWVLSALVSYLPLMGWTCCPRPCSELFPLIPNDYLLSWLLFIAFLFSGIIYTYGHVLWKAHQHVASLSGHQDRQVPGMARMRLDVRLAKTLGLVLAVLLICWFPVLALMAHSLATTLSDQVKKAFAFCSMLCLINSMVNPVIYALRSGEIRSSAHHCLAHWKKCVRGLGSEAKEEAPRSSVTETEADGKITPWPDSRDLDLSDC
T5 sequence (P21554 whole entry): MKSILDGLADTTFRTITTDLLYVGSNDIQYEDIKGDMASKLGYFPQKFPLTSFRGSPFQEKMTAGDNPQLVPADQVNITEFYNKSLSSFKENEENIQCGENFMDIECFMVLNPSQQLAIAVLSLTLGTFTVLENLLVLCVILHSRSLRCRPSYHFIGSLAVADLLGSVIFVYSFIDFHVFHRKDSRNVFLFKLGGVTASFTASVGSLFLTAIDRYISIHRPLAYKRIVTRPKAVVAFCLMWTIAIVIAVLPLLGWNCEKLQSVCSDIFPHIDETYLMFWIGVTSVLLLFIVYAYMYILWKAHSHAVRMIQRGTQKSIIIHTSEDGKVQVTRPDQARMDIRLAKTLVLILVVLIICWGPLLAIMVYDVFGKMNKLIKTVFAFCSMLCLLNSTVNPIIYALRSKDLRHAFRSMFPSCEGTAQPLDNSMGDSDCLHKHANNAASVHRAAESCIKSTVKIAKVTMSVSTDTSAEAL
T3 sequence (P41145 whole entry): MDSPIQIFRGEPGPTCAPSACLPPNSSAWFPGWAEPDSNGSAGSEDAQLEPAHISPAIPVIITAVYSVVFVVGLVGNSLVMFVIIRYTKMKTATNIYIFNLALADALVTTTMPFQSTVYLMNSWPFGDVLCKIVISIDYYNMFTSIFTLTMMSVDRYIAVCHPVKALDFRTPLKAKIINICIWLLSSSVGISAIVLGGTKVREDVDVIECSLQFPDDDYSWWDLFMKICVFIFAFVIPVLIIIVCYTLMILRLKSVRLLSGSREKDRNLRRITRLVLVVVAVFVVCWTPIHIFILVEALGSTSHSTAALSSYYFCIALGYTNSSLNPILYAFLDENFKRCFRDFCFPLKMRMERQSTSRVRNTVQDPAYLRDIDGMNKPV
Chain of Mu-type opioid receptor (P35372 whole entry): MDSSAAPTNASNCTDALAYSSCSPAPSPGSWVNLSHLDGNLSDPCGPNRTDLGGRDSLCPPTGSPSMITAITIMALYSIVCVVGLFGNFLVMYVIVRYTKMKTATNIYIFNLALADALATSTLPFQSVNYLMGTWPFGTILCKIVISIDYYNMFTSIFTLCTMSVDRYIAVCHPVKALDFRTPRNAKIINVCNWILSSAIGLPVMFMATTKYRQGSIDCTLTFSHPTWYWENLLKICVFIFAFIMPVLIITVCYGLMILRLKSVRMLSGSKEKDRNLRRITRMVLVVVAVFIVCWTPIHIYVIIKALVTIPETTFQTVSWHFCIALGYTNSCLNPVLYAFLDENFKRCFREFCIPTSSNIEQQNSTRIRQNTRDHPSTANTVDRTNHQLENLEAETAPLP
Chain of Delta-type opioid receptor (P41143 whole entry): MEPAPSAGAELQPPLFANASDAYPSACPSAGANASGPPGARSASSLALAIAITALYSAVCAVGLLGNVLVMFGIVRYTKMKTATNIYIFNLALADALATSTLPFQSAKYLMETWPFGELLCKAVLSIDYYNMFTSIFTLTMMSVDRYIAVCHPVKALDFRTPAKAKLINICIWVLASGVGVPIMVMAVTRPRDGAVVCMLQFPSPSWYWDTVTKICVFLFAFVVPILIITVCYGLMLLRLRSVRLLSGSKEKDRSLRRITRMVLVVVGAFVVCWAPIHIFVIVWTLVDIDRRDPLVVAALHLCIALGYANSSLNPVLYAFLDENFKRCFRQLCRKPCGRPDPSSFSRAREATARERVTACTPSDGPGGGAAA
Chain of G-protein coupled receptor 55 (Q9Y2T6 whole entry): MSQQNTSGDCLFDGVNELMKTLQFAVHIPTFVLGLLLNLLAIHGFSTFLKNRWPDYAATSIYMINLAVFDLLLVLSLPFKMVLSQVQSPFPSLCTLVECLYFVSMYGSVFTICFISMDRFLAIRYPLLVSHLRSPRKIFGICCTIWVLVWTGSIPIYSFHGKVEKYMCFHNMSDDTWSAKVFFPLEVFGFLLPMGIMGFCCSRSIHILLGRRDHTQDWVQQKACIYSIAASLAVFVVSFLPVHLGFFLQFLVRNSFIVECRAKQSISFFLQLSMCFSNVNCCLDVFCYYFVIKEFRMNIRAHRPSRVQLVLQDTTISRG

Compound: Cc1ccc(C)c(Sc2ccc(NC(=O)CCl)cc2)c1
- IC50 [1]: 0.743 µM (active)
- CC50 [2]: 7.6 µM (active)
- AC50 [3]: 2.3 µM (active)
- EC50 [4]: 0.602 µM (active)

Compound: O=C(Nc1ccccc1N1CCOCC1)C1CCN(S(=O)(=O)c2ccc(F)cc2)CC1
- AC50 [5]: > 350 µM (inactive)

Compound: FC(F)(F)c1cc(CSc2nnc(-c3ccccn3)n2Cc2cccs2)ccc1Cl
- EC50 [6]: 1.38 µM (active)
- EC50 [7]: > 32 µM (inactive)
- EC50 [8]: > 32 µM (inactive)
- EC50 [9]: 0.432 µM (active)

Compound: Cc1nnc(-c2ccccc2)c2cn(-c3ccc(Cl)cc3)nc12
- EC50 [10]: > 32 µM (inactive)
- EC50 [11]: > 32 µM (inactive)
- IC50 [12]: 23 µM (inactive)
- IC50 [13]: 3.63 µM (active)
- IC50 [14]: 1.77 µM (active)
- IC50 [15]: > 32 µM (inactive)
- EC50 [16]: > 32 µM (inactive)

Compound: Cc1ccc(/C=N/NC(=O)CSc2nnc(-c3ccccc3)n2-c2ccc(Cl)cc2)o1
- EC50 [17]: > 100 µM (inactive)
